Patent US20070128217A1 (priority 2003, published 2007)

Legend:
[1] = test system: recombinant human anti-SARS-CoV antibody 03-018; type: binding; design: Binding of antibody 03-018 to linear peptides of the N protein of SARS-CoV Urbani / Binding of antibody 03-018 to looped/cyclic peptides of the N protein of SARS-CoV Urbani: unit not given here
[2] = test system: rabbit serum obtained by immunizing a rabbit with the SARS-CoV strain Frankfurt 1; type: binding; design: Binding of a rabbit serum to linear peptides / Binding of a rabbit serum to looped peptides / Rabbit serum linear peptides / Rabbit serum looped peptides / Binding of a rabbit serum to linear peptides of protein N of SARS-CoV Urbani (Rabbit serum linear peptides) / Binding of a rabbit serum to looped/cyclic peptides of protein N of SARS-CoV Urbani (Rabbit serum looped peptides): unit not given here
[3] = test system: antibodies in sera from SARS patients (sera 1a, 1b, 2, 6, 37, 62, London, SARS-yellow, SARS-green); type: binding, human; design: Binding of serum 6 to linear peptides of protein X1 of SARS-CoV Urbani / Binding of serum 37 to linear peptides of protein X1 of SARS-CoV Urbani / Binding of serum 6 to looped/cyclic peptide (PEPSCAN-ELISA) / Binding of serum 37 to looped/cyclic peptide (PEPSCAN-ELISA) / Binding of serum 37 to looped/cyclic peptides of protein X1 of SARS-CoV Urbani / Binding of serum 6 to linear peptides of protein X2 / Binding of serum 37 to linear peptides of protein X2 / Binding of serum 37 to looped/cyclic peptides of protein X2 of SARS-CoV Urbani / Binding of serum 6 to linear peptides of protein M of SARS-CoV Urbani / Binding of serum 37 to linear peptides of protein M of SARS-CoV Urbani / Binding of serum 6 to looped/cyclic peptides of protein M of SARS-CoV Urbani / Binding of serum 37 to looped/cyclic peptides of protein M of SARS-CoV Urbani / Binding of serum 6 to linear peptides of protein X3 of SARS-CoV Urbani / Binding of serum 37 to linear peptides of protein X3 of SARS-CoV Urbani / Binding of serum 37 to looped/cyclic peptides of protein X3 of SARS-CoV Urbani / Binding of serum 6 to linear peptides of protein X4 of SARS-CoV Urbani / Binding of serum 37 to linear peptides of protein X4 of SARS-CoV Urbani / Binding of serum 37 to looped/cyclic peptides of protein X4 of SARS-CoV Urbani / Binding of serum 6 to linear peptides of protein X5 of SARS-CoV Urbani / Binding of serum 37 to linear peptides of protein X5 of SARS-CoV Urbani / Binding of serum 37 to looped/cyclic peptides of protein X5 of SARS-CoV Urbani / Binding of serum 6 to linear peptides of protein N of SARS-CoV Urbani / Binding of serum 37 to linear peptides of protein N of SARS-CoV Urbani / Binding of serum 6 to linear peptide (PEPSCAN-ELISA) / Binding of serum 1a to looped/cyclic peptides of protein N of SARS-CoV Urbani / Binding of serum 1b to looped/cyclic peptides of protein N of SARS-CoV Urbani / Binding of serum 2 to looped/cyclic peptides of protein N of SARS-CoV Urbani / Binding of serum 6 to looped/cyclic peptides of protein N of SARS-CoV Urbani / Binding of serum 37 to looped/cyclic peptides of protein N of SARS-CoV Urbani / Binding of serum 62 to looped/cyclic peptides of protein N of SARS-CoV Urbani / Binding of serum London to looped/cyclic peptides of protein N of SARS-CoV Urbani / Binding of serum SARS-green to looped/cyclic peptides of protein N of SARS-CoV Urbani: unit not given here
[4] = test system: control sera (pooled serum of ten healthy LUMC hospital workers; commercial negative donor pooled serum from the Dutch bloodbank); type: binding, human; design: Binding of Control serum LUMC to linear peptides / Binding of Control serum Blood-bank to linear peptides / Binding of Control serum LUMC to looped peptides / Binding of Control Serum Blood-Bank to Looped peptides / Binding of Control serum LUMC to linear peptides of the protein M of SARS-CoV Urbani / Binding of Control serum Blood-bank to linear peptides of the protein M of SARS-CoV Urbani / Binding of Control serum LUMC to looped peptides of the protein M of SARS-CoV Urbani / Binding of Control Serum Blood-Bank to Looped peptides of the protein M of SARS-CoV Urbani: unit not given here

## ATVLQLPQGTTLPKG
[1]
  Binding of antibody 03-018 to linear peptides of the N protein of SARS-CoV Urbani: 0.1
  Binding of antibody 03-018 to looped/cyclic peptides of the N protein of SARS-CoV Urbani: 0.2
[2]
  Binding of a rabbit serum to linear peptides of protein N of SARS-CoV Urbani (Rabbit serum linear peptides): 0.2
  Binding of a rabbit serum to looped/cyclic peptides of protein N of SARS-CoV Urbani (Rabbit serum looped peptides): 0.3

## DDKDPQFKDNVILLN
[1]
  Binding of antibody 03-018 to linear peptides of the N protein of SARS-CoV Urbani: 0.1
  Binding of antibody 03-018 to looped/cyclic peptides of the N protein of SARS-CoV Urbani: 0.3
[2]
  Binding of a rabbit serum to linear peptides of protein N of SARS-CoV Urbani (Rabbit serum linear peptides): 0.1
  Binding of a rabbit serum to looped/cyclic peptides of protein N of SARS-CoV Urbani (Rabbit serum looped peptides): 0.4

## DKDPQFKDNVILLNK
[1]
  Binding of antibody 03-018 to linear peptides of the N protein of SARS-CoV Urbani: 0.1
  Binding of antibody 03-018 to looped/cyclic peptides of the N protein of SARS-CoV Urbani: 0.4
[2]
  Binding of a rabbit serum to linear peptides of protein N of SARS-CoV Urbani (Rabbit serum linear peptides): 0.1
  Binding of a rabbit serum to looped/cyclic peptides of protein N of SARS-CoV Urbani (Rabbit serum looped peptides): 0.5

## GSSRGNSPARMASGG
[1]
  Binding of antibody 03-018 to linear peptides of the N protein of SARS-CoV Urbani: 0.1
  Binding of antibody 03-018 to looped/cyclic peptides of the N protein of SARS-CoV Urbani: 0.2
[3]
  Binding of serum 1a to linear peptide (PEPSCAN-ELISA): 0.4
  Binding of serum 1a to looped/cyclic peptides of protein N of SARS-CoV Urbani: 0.4
  Binding of serum 1b to linear peptide (PEPSCAN-ELISA): 0.2
  Binding of serum 1b to looped/cyclic peptides of protein N of SARS-CoV Urbani: 0.3
  Binding of serum 2 to linear peptide (PEPSCAN-ELISA): 0.2
  Binding of serum 2 to looped/cyclic peptides of protein N of SARS-CoV Urbani: 0.7
  Binding of serum 6 to linear peptide (PEPSCAN-ELISA): 0.2
  Binding of serum 6 to looped/cyclic peptides of protein N of SARS-CoV Urbani: 0.4
  Binding of serum 37 to linear peptide (PEPSCAN-ELISA): 0.5
  Binding of serum 37 to looped/cyclic peptides of protein N of SARS-CoV Urbani: 0.6
  Binding of serum 62 to linear peptide (PEPSCAN-ELISA): 0.7
  Binding of serum 62 to looped/cyclic peptides of protein N of SARS-CoV Urbani: 0.6
  Binding of serum London to linear peptide (PEPSCAN-ELISA): 0.5
  Binding of serum London to looped/cyclic peptides of protein N of SARS-CoV Urbani: 0.9
  Binding of serum SARS-green to linear peptide (PEPSCAN-ELISA): 0.8
  Binding of serum SARS-green to looped/cyclic peptides of protein N of SARS-CoV Urbani: 0.7
  Binding of serum SARS-yellow to linear peptide (PEPSCAN-ELISA): 0.7
  Binding of serum SARS-yellow to looped/cyclic peptides of protein N of SARS-CoV Urbani: 0.5
[2]
  Recognition of the peptide by the rabbit serum: recognized

## TVLQLPQGTTLPKGF
[1]
  Binding of antibody 03-018 to linear peptides of the N protein of SARS-CoV Urbani: 0.1
  Binding of antibody 03-018 to looped/cyclic peptides of the N protein of SARS-CoV Urbani: 0.3
[2]
  Binding of a rabbit serum to linear peptides of protein N of SARS-CoV Urbani (Rabbit serum linear peptides): 0.3
  Binding of a rabbit serum to looped/cyclic peptides of protein N of SARS-CoV Urbani (Rabbit serum looped peptides): 1.2

## YSPLFLIVAALVFLI
[4]
  Binding of Control Serum Blood-Bank to Looped peptides: 0.4
  Binding of Control serum Blood-bank to linear peptides: 0.6
  Binding of Control serum LUMC to linear peptides: 0.5
  Binding of Control serum LUMC to looped peptides: 0.7
[3]
  Binding of serum 1a to linear peptides of protein X4 of SARS-CoV Urbani: 0.7
  Binding of serum 1a to looped/cyclic peptides of protein X4 of SARS-CoV Urbani: 0.7
  Binding of serum 1b to linear peptides of protein X4 of SARS-CoV Urbani: 0.3
  Binding of serum 1b to looped/cyclic peptides of protein X4 of SARS-CoV Urbani: 0.3
  Binding of serum 2 to linear peptides of protein X4 of SARS-CoV Urbani: 0.5
  Binding of serum 2 to looped/cyclic peptides of protein X4 of SARS-CoV Urbani: 0.6
  Binding of serum 6 to linear peptides of protein X4 of SARS-CoV Urbani: 0.5
  Binding of serum 6 to looped/cyclic peptides of protein X4 of SARS-CoV Urbani: 0.4
  Binding of serum 37 to linear peptides of protein X4 of SARS-CoV Urbani: 0.7
  Binding of serum 37 to looped/cyclic peptides of protein X4 of SARS-CoV Urbani: 0.6
  Binding of serum 62 to linear peptides of protein X4 of SARS-CoV Urbani: 0.7
  Binding of serum 62 to looped/cyclic peptides of protein X4 of SARS-CoV Urbani: 0.6
  Binding of serum London to linear peptides of protein X4 of SARS-CoV Urbani: 0.7
  Binding of serum London to looped/cyclic peptides of protein X4 of SARS-CoV Urbani: 0.3
  Binding of serum SARS-green to linear peptides of protein X4 of SARS-CoV Urbani: 0.5
  Binding of serum SARS-green to looped/cyclic peptides of protein X4 of SARS-CoV Urbani: 0.6
  Binding of serum SARS-yellow to linear peptides of protein X4 of SARS-CoV Urbani: 0.4
  Binding of serum SARS-yellow to looped/cyclic peptides of protein X4 of SARS-CoV Urbani: 0.4
[2]
  Rabbit serum linear peptides: 0.3
  Rabbit serum looped peptides: 0.5

## YTQSTALQELLIQQW
[4]
  Binding of Control Serum Blood-Bank to Looped peptides: 0.6
  Binding of Control serum Blood-bank to linear peptides: 0.5
  Binding of Control serum LUMC to linear peptides: 0.4
  Binding of Control serum LUMC to looped peptides: 0.6
[3]
  Binding of serum 1a to linear peptides of protein X2: 0.6
  Binding of serum 1a to looped/cyclic peptides of protein X2 of SARS-CoV Urbani: 0.6
  Binding of serum 1b to linear peptides of protein X2: 0.5
  Binding of serum 1b to looped/cyclic peptides of protein X2 of SARS-CoV Urbani: 0.5
  Binding of serum 2 to linear peptides of protein X2: 0.4
  Binding of serum 2 to looped/cyclic peptides of protein X2 of SARS-CoV Urbani: 0.5
  Binding of serum 6 to linear peptides of protein X2: 0.4
  Binding of serum 6 to looped/cyclic peptides of protein X2 of SARS-CoV Urbani: 0.2
  Binding of serum 37 to linear peptides of protein X2: 0.5
  Binding of serum 37 to looped/cyclic peptides of protein X2 of SARS-CoV Urbani: 0.4
  Binding of serum 62 to linear peptides of protein X2: 0.6
  Binding of serum 62 to looped/cyclic peptides of protein X2 of SARS-CoV Urbani: 0.6
  Binding of serum London to linear peptides of protein X2: 0.5
  Binding of serum London to looped/cyclic peptides of protein X2 of SARS-CoV Urbani: 0.2
  Binding of serum SARS-green to linear peptides of protein X2: 0.6
  Binding of serum SARS-green to looped/cyclic peptides of protein X2 of SARS-CoV Urbani: 0.3
  Binding of serum SARS-yellow to linear peptides of protein X2: 0.6
  Binding of serum SARS-yellow to looped/cyclic peptides of protein X2 of SARS-CoV Urbani: 0.3
[2]
  Binding of a rabbit serum to linear peptides: 0.3
  Binding of a rabbit serum to looped peptides: 0.3

## YVVVHGYFTEVYYQL
[4]
  Binding of Control Serum Blood-Bank to Looped peptides: 0.5
  Binding of Control serum Blood-bank to linear peptides: 0.4
  Binding of Control serum LUMC to linear peptides: 1.0
  Binding of Control serum LUMC to looped peptides: 0.9
[3]
  Binding of serum 1a to linear peptides of protein X1 of SARS-CoV Urbani: 0.7
  Binding of serum 1a to looped/cyclic peptides of protein X1 of SARS-CoV Urbani: 0.6
  Binding of serum 1b to linear peptides of protein X1 of SARS-CoV Urbani: 0.6
  Binding of serum 1b to looped/cyclic peptides of protein X1 of SARS-CoV Urbani: 0.5
  Binding of serum 2 to linear peptides of protein X1 of SARS-CoV Urbani: 0.5
  Binding of serum 2 to looped/cyclic peptides of protein X1 of SARS-CoV Urbani: 0.5
  Binding of serum 6 to linear peptides of protein X1 of SARS-CoV Urbani: 0.3
  Binding of serum 6 to looped/cyclic peptides of protein X1 of SARS-CoV Urbani: 0.3
  Binding of serum 37 to linear peptides of protein X1 of SARS-CoV Urbani: 0.5
  Binding of serum 37 to looped/cyclic peptides of protein X1 of SARS-CoV Urbani: 0.4
  Binding of serum 62 to linear peptides of protein X1 of SARS-CoV Urbani: 0.4
  Binding of serum 62 to looped/cyclic peptides of protein X1 of SARS-CoV Urbani: 0.4
  Binding of serum London to linear peptides of protein X1 of SARS-CoV Urbani: 0.2
  Binding of serum London to looped/cyclic peptides of protein X1 of SARS-CoV Urbani: 0.2
  Binding of serum SARS-green to linear peptides of protein X1 of SARS-CoV Urbani: 0.1
  Binding of serum SARS-green to looped/cyclic peptides of protein X1 of SARS-CoV Urbani: 0.2
  Binding of serum SARS-yellow to linear peptides of protein X1 of SARS-CoV Urbani: 0.2
  Binding of serum SARS-yellow to looped/cyclic peptides of protein X1 of SARS-CoV Urbani: 0.4
[2]
  Binding of a rabbit serum to linear peptides: 0.1
  Binding of a rabbit serum to looped peptides: 0.5
